Data published in patent US20240279684A1, “CYTOSOLIC DELIVERY OF GENOME EDITING TOOLS” (SAPREME TECHNOLOGIES B.V., priority 2021, published 2024).

System: GFP-expressing Neuro-2A-GFP-cells
Experiment: GFP-knockout via Cas9/gRNA(GFP) nanoplexes, FITC-H flow cytometry
Assay type: cell-based, murine
Settings: for cells not considered fluorescent: GE1741-co-application
Method: FIG. 6A-E. GFP-Knockout of GFP-expressing Neuro-2A-GFP-cells via PDD (Cas9-DNA, gRNA (GFP)-DNA)-nanoplexes±saponin administration (co-transfection). GFP expressing Neuro-2A-cells were transfected via co-transfection of Cas9-DNA-plasmid and gRNA (GFP)-DNA-plasmid in a ratio of 4:0.5:0:5, with 500 ng of each DNA/well and 4.000 ng poly-lysine K16 peptide perwell. […] With saponin-Co-administration, the FITC-H was decreased by 10% (FIG. 6D) and the amount of cells not considered “fluorescent” compared to negative control, was increased by 7.5% (FIG. 6E).; n 3. FIG. 6A: FACS results with negative control; FIG. 6B: FACS results with PDD(Cas9-DNA, gRNA(GFP)-DNA), 4:1; FIG. 6C: FACS results of PDD(Cas9-DNA, gRNA(GFP)-DNA), 4:1+GE1741; FIG. 6D: values for the median FITC-H for the test samples of FIG. 6A-C and the control Lipofectamine3000DD(Cas9-DNA); FIG. 6E: amount of non-fluorescent cells in the test samples of FIGS. 6A-C and the control Lipofectamine3000DD(Cas9-DNA).
FIG. 7A-E. GFP-Knockout of GFP-expressing Neuro-2A-cells via PD (Cas9-gRNA (GFP)-DNA)-nanoplexes±saponin administration (All-in-one-transfection). GFP expressing Neuro-2A-cells were transfected via “All-in-one”-transfection of a Cas9-gRNA (GFP)-DNA-plasmid in a ratio of 4:1, 500 ng of each DNA/well. […] FIG. 7A: FACS results with negative control; FIG. 7B: FACS results with PD(Cas9-gRNA(GFP)-DNA, 4:1; FIG. 7C: FACS results of PD(Cas9-gRNA(GFP)-DNA, 4:1+GE1741; FIG. 7D: values for the median FITC-H for the test samples of FIG. 7A-C and for PD(Cas9-gRNA(GFP)-DNA, 8:1 and PD(Cas9-gRNA(GFP)-DNA, 8:1+GE1741; FIG. 7E: amount of non-fluorescent cells in the test samples of FIG. 7A-C and for PD(Cas9-gRNA(GFP)-DNA, 8:1 and PD(Cas9-gRNA(GFP)-DNA, 8:1+GE1741.
After the successful delivery of Cas9-DNA with GFP-driven fluorescence has been established, the inventors next tested the functionality of Cas9-transfections. GFP-expressing Neuro-2A-GFP-cells were therefore acquired. The aim of the test was to show and visualize the knock-out of the GFP-gene with a CRISPR-Cas9-gene knock-out. Therefore, Cas9-DNA (i.e. a plasmid DNA) was, either co-transfected with a gRNA-DNA-plasmid (PDD), or delivered in one plasmid DNA (“All-In-One-Plasmid”) coding for Cas9 and gRNA (PD) and expressing both Cas9 and guide RNA (FIG. 8, FIG. 9). The effect of GE1741-co-application during transfection of the cells was investigated via decrease of fluorescence intensity (FITC-H median & separation of the dot plot in FITC-H & FSC related quarters). […] To improve gene knock-out efficiency, a number of different gRNA-sequences was tested, in order to select the most efficient target sequence for the gRNA. The initially and further applied gRNA-sequences were obtained through a database with efficiency information. For selection of an optimal gRNA sequence, the GFP-gene sequence of the transfected cell line has to be known as many GFP-sequences are available. Further, the gene knock-out requires a sensitive assay, by which minimal changes can be detected. Within promotor-driven highly fluorescing cells, single gene knock-out possibly could not be identified.

## CC(=O)OC1C(C)OC(OC2C(C)OC(OC(=O)C34CCC(C)(C)CC3C3=CCC5C6(C)CCC(OC7OC(C(=O)O)C(O)C(OC8OCC(O)C(O)C8O)C7OC7OC(CO)C(O)C(O)C7O)C(C)(C=O)C6CCC5(C)C3(C)CC4O)C(OC3OC(C)C(OC4OCC(O)C(OC5OCC(O)C(O)C5O)C4O)C(O)C3O)C2O)C(O)C1OC(C)=O (stereo not shown) [GE1741]
  cells successfully transfected with Cas9-DNA: 30%
All-In-One-Plasmid (PD)
  cells not considered fluorescent: 11%
All-in-one PD (Cas9-gRNA(GFP)-DNA)
  FITC-H median change (in words): No FITC-H could be observed
All-in-one PD (Cas9-gRNA(GFP)-DNA), PD mass ratio 8:1
  amount of cells considered fluorescent, elevated by: 11%
co-transfection PDD (Cas9-DNA, gRNA(GFP)-DNA) 4:0.5:0.5, with saponin
  decrease of FITC-H median: 10%
co-transfection PDD (Cas9-DNA, gRNA(GFP)-DNA), with saponin
  increase of cells not considered fluorescent compared to negative control: 7.5%
co-transfection with gRNA-DNA-plasmid (PDD)
  cells not considered fluorescent: 10%
